According to PubChem BioAssay (NCI):
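Five concentrations, 48 hours, 96-well plates. Here, GI50 denotes the concentration required for 50% inhibition of growth. TGI: total growth inhibition.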

Columns and labels:
Test in all cases: NCI-60 cell line screen, 48 h
NCI-H226 lung = system: NCI-H226 lung
HCT-116 colon = system: HCT-116 colon
OVCAR-4 ovarian = system: OVCAR-4 ovarian
SR leukemia = system: SR leukemia
RXF 393 renal = system: RXF 393 renal
MALME-3M melanoma = system: MALME-3M melanoma
SF-539 CNS = system: SF-539 CNS
SNB-75 CNS = system: SNB-75 CNS
U251 CNS = system: U251 CNS
SF-268 CNS = system: SF-268 CNS
HOP-62 NSCLC = system: HOP-62 NSCLC
UACC-62 melanoma = system: UACC-62 melanoma
MOLT-4 leukemia = system: MOLT-4 leukemia
KM12 colon = system: KM12 colon
A549 NSCLC = system: A549 NSCLC
CCRF-CEM leukemia = system: CCRF-CEM leukemia
SK-MEL-28 melanoma = system: SK-MEL-28 melanoma
OVCAR-5 ovarian = system: OVCAR-5 ovarian
DU-145 prostate = system: DU-145 prostate
UACC-257 melanoma = system: UACC-257 melanoma
SK-MEL-2 melanoma = system: SK-MEL-2 melanoma
SF-295 CNS = system: SF-295 CNS
ACHN renal = system: ACHN renal
HCC-2998 colon = system: HCC-2998 colon
T-47D breast = system: T-47D breast
NCI-H522 lung = system: NCI-H522 lung
MDA-MB-435 = system: MDA-MB-435
HOP-92 NSCLC = system: HOP-92 NSCLC
HCT-15 colon = system: HCT-15 colon
M14 melanoma = system: M14 melanoma
OVCAR-8 ovarian = system: OVCAR-8 ovarian
BT-549 breast = system: BT-549 breast
K-562 leukemia = system: K-562 leukemia
HS 578T breast = system: HS 578T breast
SK-MEL-5 melanoma = system: SK-MEL-5 melanoma
NCI/ADR-RES ovarian = system: NCI/ADR-RES ovarian
PC-3 prostate = system: PC-3 prostate
IGROV1 ovarian = system: IGROV1 ovarian
COLO 205 colon = system: COLO 205 colon
SN12C renal = system: SN12C renal
HT29 colon = system: HT29 colon
SW-620 colon = system: SW-620 colon
LOX IMVI melanoma = system: LOX IMVI melanoma
EKVX NSCLC = system: EKVX NSCLC
SK-OV-3 ovarian = system: SK-OV-3 ovarian
NCI-H23 lung = system: NCI-H23 lung
HL-60(TB) leukemia = system: HL-60(TB) leukemia
786-0 renal = system: 786-0 renal
TK-10 renal = system: TK-10 renal
SNB-19 CNS = system: SNB-19 CNS
RPMI-8226 leukemia = system: RPMI-8226 leukemia
UO-31 renal = system: UO-31 renal
MCF7 breast = system: MCF7 breast
NCI-H460 lung = system: NCI-H460 lung
OVCAR-3 ovarian = system: OVCAR-3 ovarian
MDA-MB-231 breast = system: MDA-MB-231 breast
A498 renal = system: A498 renal

CCNCCCn1c2c(c3ccc(F)cc3c1=O)C(=O)c1cc(OC)cnc1-2
GI50 (NCI-H226 lung): 144 nM
TGI (NCI-H226 lung): 327 nM
GI50 (HCT-116 colon): 136 nM
TGI (HCT-116 colon): 550 nM
GI50 (OVCAR-4 ovarian): 460 nM
TGI (OVCAR-4 ovarian): 11000 nM
GI50 (SR leukemia): 127 nM
TGI (SR leukemia): 978 nM
GI50 (RXF 393 renal): 260 nM
TGI (RXF 393 renal): 922 nM
GI50 (MALME-3M melanoma): 329 nM
TGI (MALME-3M melanoma): 1440 nM
GI50 (SF-539 CNS): 320 nM
TGI (SF-539 CNS): 1390 nM
GI50 (SNB-75 CNS): 364 nM
TGI (SNB-75 CNS): 5030 nM
GI50 (U251 CNS): 100 nM
TGI (U251 CNS): 506 nM
GI50 (SF-268 CNS): 386 nM
TGI (SF-268 CNS): 10900 nM
GI50 (HOP-62 NSCLC): 149 nM
TGI (HOP-62 NSCLC): 472 nM
GI50 (UACC-62 melanoma): 341 nM
TGI (UACC-62 melanoma): 1850 nM
GI50 (MOLT-4 leukemia): 48.5 nM
TGI (MOLT-4 leukemia): 369 nM
GI50 (KM12 colon): 259 nM
TGI (KM12 colon): 10000 nM
GI50 (A549 NSCLC): 64.3 nM
TGI (A549 NSCLC): 256 nM
GI50 (CCRF-CEM leukemia): 164 nM
TGI (CCRF-CEM leukemia): 1120 nM
GI50 (SK-MEL-28 melanoma): 1230 nM
TGI (SK-MEL-28 melanoma): 3450 nM
GI50 (OVCAR-5 ovarian): 331 nM
TGI (OVCAR-5 ovarian): 1900 nM
GI50 (DU-145 prostate): 215 nM
TGI (DU-145 prostate): 1370 nM
GI50 (UACC-257 melanoma): 403 nM
TGI (UACC-257 melanoma): 2160 nM
GI50 (SK-MEL-2 melanoma): 1130 nM
TGI (SK-MEL-2 melanoma): 4120 nM
GI50 (SF-295 CNS): 194 nM
TGI (SF-295 CNS): 721 nM
GI50 (ACHN renal): 127 nM
TGI (ACHN renal): 371 nM
GI50 (HCC-2998 colon): 1060 nM
TGI (HCC-2998 colon): 2500 nM
GI50 (T-47D breast): 145 nM
TGI (T-47D breast): 761 nM
GI50 (NCI-H522 lung): 56.2 nM
TGI (NCI-H522 lung): 1020 nM
GI50 (MDA-MB-435): 477 nM
TGI (MDA-MB-435): 2130 nM
GI50 (HOP-92 NSCLC): 360 nM
TGI (HOP-92 NSCLC): 4390 nM
GI50 (HCT-15 colon): 228 nM
TGI (HCT-15 colon): 3320 nM
GI50 (M14 melanoma): 336 nM
TGI (M14 melanoma): 1720 nM
GI50 (OVCAR-8 ovarian): 183 nM
TGI (OVCAR-8 ovarian): 992 nM
GI50 (BT-549 breast): 936 nM
TGI (BT-549 breast): 5140 nM
GI50 (K-562 leukemia): 206 nM
TGI (K-562 leukemia): 1680 nM
GI50 (HS 578T breast): 1620 nM
TGI (HS 578T breast): 13500 nM
GI50 (SK-MEL-5 melanoma): 254 nM
TGI (SK-MEL-5 melanoma): 1060 nM
GI50 (NCI/ADR-RES ovarian): 374 nM
TGI (NCI/ADR-RES ovarian): 4890 nM
GI50 (PC-3 prostate): 301 nM
TGI (PC-3 prostate): 10300 nM
GI50 (IGROV1 ovarian): 330 nM
TGI (IGROV1 ovarian): 4490 nM
GI50 (COLO 205 colon): 68.8 nM
TGI (COLO 205 colon): 1160 nM
GI50 (SN12C renal): 151 nM
TGI (SN12C renal): 763 nM
GI50 (HT29 colon): 147 nM
TGI (HT29 colon): 860 nM
GI50 (SW-620 colon): 170 nM
TGI (SW-620 colon): 5550 nM
GI50 (LOX IMVI melanoma): 141 nM
TGI (LOX IMVI melanoma): 319 nM
GI50 (EKVX NSCLC): 328 nM
TGI (EKVX NSCLC): 2780 nM
GI50 (SK-OV-3 ovarian): 221 nM
TGI (SK-OV-3 ovarian): 752 nM
GI50 (NCI-H23 lung): 302 nM
TGI (NCI-H23 lung): 1540 nM
GI50 (HL-60(TB) leukemia): 202 nM
TGI (HL-60(TB) leukemia): 644 nM
GI50 (786-0 renal): 195 nM
TGI (786-0 renal): 755 nM
GI50 (TK-10 renal): 296 nM
TGI (TK-10 renal): 1670 nM
GI50 (SNB-19 CNS): 160 nM
TGI (SNB-19 CNS): 1260 nM
GI50 (RPMI-8226 leukemia): 144 nM
TGI (RPMI-8226 leukemia): 692 nM
GI50 (UO-31 renal): 123 nM
TGI (UO-31 renal): 568 nM
GI50 (MCF7 breast): 42.7 nM
TGI (MCF7 breast): 2750 nM
GI50 (NCI-H460 lung): 45.7 nM
TGI (NCI-H460 lung): 222 nM
GI50 (OVCAR-3 ovarian): 282 nM
TGI (OVCAR-3 ovarian): 2140 nM
GI50 (MDA-MB-231 breast): 404 nM
TGI (MDA-MB-231 breast): 1930 nM
GI50 (A498 renal): 248 nM
TGI (A498 renal): 1350 nM
